In brackets after ≈: the same amount, converted by molar mass.
How the values were obtained:
Assay type in all cases: functional
[1] = system: Staphylococcus epidermidis; assay: Antibacterial activity against methicillin-resistant Staphylococcus epidermidis assessed as zone of inhibition at 20 ug/mL after 24 hrs by agar disc diffusion method; conditions: read-out: IZ
Staphylococcus aureus [2] = assay: Antibacterial activity against methicillin-resistant Staphylococcus aureus assessed as zone of inhibition at 800 ng/mL after 24 hrs by agar disc diffusion method; conditions: read-out: IZ
Staphylococcus aureus [3] = assay: Antibacterial activity against methicillin-resistant Staphylococcus aureus assessed as zone of inhibition at 50 ug/mL after 24 hrs by agar disc diffusion method; conditions: read-out: IZ
[4] = system: Staphylococcus haemolyticus; assay: Antibacterial activity against methicillin-resistant Staphylococcus haemolyticus assessed as zone of inhibition at 400 ng/mL after 24 hrs by agar disc diffusion method; conditions: read-out: IZ
Staphylococcus aureus [5] = assay: Antibacterial activity against methicillin-resistant Staphylococcus aureus after overnight incubation by micro broth dilution analysis
[6] = system: Staphylococcus haemolyticus; assay: Antibacterial activity against methicillin-resistant Staphylococcus haemolyticus after overnight incubation by micro broth dilution analysis
[7] = system: Staphylococcus haemolyticus; assay: Antibacterial activity against methicillin-resistant Staphylococcus haemolyticus assessed as zone of inhibition at 200 ng/mL after 24 hrs by agar disc diffusion method; conditions: read-out: IZ
Staphylococcus aureus [8] = assay: Antibacterial activity against methicillin-resistant Staphylococcus aureus assessed as zone of inhibition at 200 ng/mL after 24 hrs by agar disc diffusion method; conditions: read-out: IZ
[9] = system: Staphylococcus epidermidis; assay: Antibacterial activity against methicillin-resistant Staphylococcus epidermidis after overnight incubation by micro broth dilution analysis
Staphylococcus aureus [10] = assay: Antibacterial activity against methicillin-resistant Staphylococcus aureus assessed as zone of inhibition at 400 ng/mL after 24 hrs by agar disc diffusion method; conditions: read-out: IZ
[11] = system: Staphylococcus haemolyticus; assay: Antibacterial activity against methicillin-resistant Staphylococcus haemolyticus assessed as zone of inhibition at 800 ng/mL after 24 hrs by agar disc diffusion method; conditions: read-out: IZ
[12] = system: Staphylococcus haemolyticus; assay: Antibacterial activity against methicillin-resistant Staphylococcus haemolyticus assessed as zone of inhibition at 50 ug/mL after 24 hrs by agar disc diffusion method; conditions: read-out: IZ
[13] = system: Staphylococcus epidermidis; assay: Antibacterial activity against methicillin-resistant Staphylococcus epidermidis assessed as zone of inhibition at 400 ng/mL after 24 hrs by agar disc diffusion method; conditions: read-out: IZ
[14] = system: Staphylococcus epidermidis; assay: Antibacterial activity against methicillin-resistant Staphylococcus epidermidis assessed as zone of inhibition at 800 ng/mL after 24 hrs by agar disc diffusion method; conditions: read-out: IZ
[15] = system: Staphylococcus epidermidis; assay: Antibacterial activity against methicillin-resistant Staphylococcus epidermidis assessed as zone of inhibition at 200 ng/mL after 24 hrs by agar disc diffusion method; conditions: read-out: IZ

| SMILES | zone of inhibition at 20 µg/mL [1] [mm] | zone of inhibition at 0.8 µg/mL (Staphylococcus aureus [2]) [mm] | zone of inhibition at 50 µg/mL (Staphylococcus aureus [3]) [mm] | zone of inhibition at 0.4 µg/mL [4] [mm] | MIC99 (Staphylococcus aureus [5]) [µg/mL] | MIC99 [6] [µg/mL] | zone of inhibition at 0.2 µg/mL [7] [mm] | zone of inhibition at 0.2 µg/mL (Staphylococcus aureus [8]) [mm] | MIC99 [9] [µg/mL] | zone of inhibition at 0.4 µg/mL (Staphylococcus aureus [10]) [mm] | zone of inhibition at 0.8 µg/mL [11] [mm] | zone of inhibition at 50 µg/mL [12] [mm] | zone of inhibition at 0.4 µg/mL [13] [mm] | zone of inhibition at 0.8 µg/mL [14] [mm] | zone of inhibition at 0.2 µg/mL [15] [mm] |
| --- | --- | --- | --- | --- | --- | --- | --- | --- | --- | --- | --- | --- | --- | --- | --- |
| O=S(=O)(F)/C=C/c1cccc(Br)c1 | 4.5 | 12 | 17.1 | 42 | 0.813 (≈ 3.07 µM) | 16.1 (≈ 60.8 µM) | 32 | 5.1 | 58.2 (≈ 219 µM) | 10.1 | 52 | 8.5 |  |  |  |
| CCOC(=O)/C=C/C=C/S(=O)(=O)F | 8.2 |  | 4.1 | 3.2 | 40.3 (≈ 193 µM) | 56.1 (≈ 269 µM) | 0 |  | 47 (≈ 226 µM) |  | 5.1 | 7.5 | 4.1 | 3.1 | 3.3 |
| O=[N+]([O-])c1ccccc1/C=C/C=C/S(=O)(=O)F | 6.2 |  | 5.5 | 4.2 | 47 (≈ 183 µM) | 16.2 (≈ 62.8 µM) | 3.2 |  | 44 (≈ 171 µM) |  | 5.2 | 6.5 |  |  |  |
| Cc1cccc(/C=C/S(=O)(=O)F)c1 | 3.5 | 6.2 | 10.1 | 8.2 | 0.844 (≈ 4.22 µM) | 0.812 (≈ 4.06 µM) | 6.1 | 4.3 | 57.2 (≈ 286 µM) | 5.2 | 10.3 | 12.2 |  |  |  |
| CSc1ccc(/C=C/S(=O)(=O)F)cc1 | 6.4 |  | 6.2 | 5.2 | 41.1 (≈ 177 µM) | 0.838 (≈ 3.61 µM) | 3.1 |  | 0.835 (≈ 3.59 µM) |  | 7.4 | 8.2 |  |  |  |
| CC(=O)c1ccc(/C=C/S(=O)(=O)F)cc1 | 6.5 | 10.2 | 14.1 | 5.2 | 0.822 (≈ 3.6 µM) | 0.84 (≈ 3.68 µM) | 3.3 | 6.2 | 54.2 (≈ 237 µM) | 8.2 | 6.1 | 7.2 |  |  |  |
| CC(C)c1cccc(/C=C/S(=O)(=O)F)c1 | 18 | 4.2 | 20.1 |  | 16.1 (≈ 70.3 µM) | 43 (≈ 189 µM) |  | 3.1 | 0.81 (≈ 3.55 µM) | 3.5 |  | 4.2 | 12.2 | 15.1 | 9.2 |
| O=S(=O)(F)/C=C/c1cc(C(F)(F)F)cc(C(F)(F)F)c1 | 6.5 | 10.3 | 14.4 | 3.1 | 0.814 (≈ 2.53 µM) | 18.1 (≈ 56.3 µM) | 0 | 6.2 | 60.2 (≈ 187 µM) | 7.1 | 4.2 | 7.1 |  |  |  |
| O=Cc1cccc(/C=C/S(=O)(=O)F)c1 | 6.5 | 4.2 | 10.3 | 5.1 | 17.2 (≈ 80.2 µM) | 0.828 (≈ 3.87 µM) | 2.2 | 3.1 | 41.1 (≈ 192 µM) | 3.5 | 6.1 | 8.2 |  |  |  |

Reference: ChEMBL document CHEMBL4382233, “Discovery of novel arylethenesulfonyl fluorides as potential candidates against methicillin-resistant of Staphylococcus aureus (MRSA) for overcoming multidrug resistance of bacterial infections” (2019)
